# According to patent publication US11021481B2, “Substituted isoindolin-1-ones and 2,3-dihydro-1h-pyrrolo[3,4-c]pyridin-1-ones as HPK1 antagonists” (Nimbus Saturn, Inc., priority 2019, dated 2021):
# Biological target: HPK1 (Homo sapiens (Human), UniProt Q92918)
# Assay: HPK1 biochemical enzyme assay (microfluidic mobility shift assay)
# Details: 1.5 nM HPK1, ATP 1 mM final, 30 min preincubation, 60 min at RT, Caliper EZ Reader; read-out: HPK1 1000UMATP caliper IC50
# Protocol: HPK1 biochemical enzyme assay: HPK1 enzyme inhibition was measured using a microfluidic mobility shift assay. […] Test compounds were titrated in ten point curves (top final assay concentration 3 μM), and preincubated with enzyme/substrate mix for 30 min prior to initiation of the reaction by addition of ATP (1 mM final concentration) and substrate (1 μM final concentration; Carna Biosciences) diluted in assay buffer supplemented by MgCl2 (final assay concentration of 5 mM). Following 60 min incubation at RT, the reaction was terminated by addition of 60 µl/well termination buffer (Carna Biosciences) and signal determination using aCaliper EZ Reader (Perkin Elmer, UK).
# The compound numbers correspond to the compound numbers in Table 1.
# Sequence of HPK1 (Q92918 whole entry): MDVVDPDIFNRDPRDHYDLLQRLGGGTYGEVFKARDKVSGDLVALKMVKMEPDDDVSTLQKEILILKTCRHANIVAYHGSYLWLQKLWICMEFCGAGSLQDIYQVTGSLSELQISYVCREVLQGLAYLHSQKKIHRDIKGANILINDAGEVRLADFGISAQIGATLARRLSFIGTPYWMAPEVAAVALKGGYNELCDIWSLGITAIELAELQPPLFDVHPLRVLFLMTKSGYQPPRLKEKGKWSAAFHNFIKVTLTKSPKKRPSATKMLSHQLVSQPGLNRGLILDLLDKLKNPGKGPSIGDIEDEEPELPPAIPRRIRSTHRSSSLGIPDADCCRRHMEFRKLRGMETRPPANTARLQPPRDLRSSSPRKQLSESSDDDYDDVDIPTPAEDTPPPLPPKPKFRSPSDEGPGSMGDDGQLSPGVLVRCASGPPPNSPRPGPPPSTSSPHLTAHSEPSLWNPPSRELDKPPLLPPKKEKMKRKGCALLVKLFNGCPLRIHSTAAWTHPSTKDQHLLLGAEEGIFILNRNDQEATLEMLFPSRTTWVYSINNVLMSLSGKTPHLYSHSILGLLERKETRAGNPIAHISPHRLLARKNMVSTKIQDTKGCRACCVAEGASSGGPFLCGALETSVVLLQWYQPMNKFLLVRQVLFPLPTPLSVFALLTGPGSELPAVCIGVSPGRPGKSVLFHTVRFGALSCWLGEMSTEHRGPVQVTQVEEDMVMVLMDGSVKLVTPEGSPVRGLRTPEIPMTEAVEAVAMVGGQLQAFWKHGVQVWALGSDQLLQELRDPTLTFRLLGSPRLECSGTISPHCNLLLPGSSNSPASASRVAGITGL
row,IC50 [nM],SMILES
1,< 100,"Cn1ccc2c(-c3ncc(Nc4ccc(N5CCC[C@@](O)(CN6CCOCC6)C5)cn4)c4c3CNC4=O)ccnc21 (single isomer, unassigned) [I-673]"
2,< 100,"Cn1ccc2c(-c3ncc(Nc4ccc(N5CCC[C@](O)(CN6CCOCC6)C5)cn4)c4c3CNC4=O)ccnc21 (single isomer, unassigned) [I-674]"
3,< 100,"CNC(C)(C)[C@@H]1CN(c2ccc(Nc3ccc(-c4cnc5cc(F)ccn45)c4c3C(=O)NC4)nc2)CCO1 (single isomer, unassigned) [I-675]"
4,< 100,"CNC(C)(C)[C@H]1CN(c2ccc(Nc3ccc(-c4cnc5cc(F)ccn45)c4c3C(=O)NC4)nc2)CCO1 (single isomer, unassigned) [I-676]"
5,< 100,"O=C1NCc2c(-c3cnc4cc(F)ccn34)ccc(Nc3ccc([C@H]4CCOC4)c(CNCC(F)F)n3)c21 (single isomer, unassigned) [I-739]"
6,< 100,"O=C1NCc2c(-c3cnc4cc(F)ccn34)ccc(Nc3ccc([C@@H]4CCOC4)c(CNCC(F)F)n3)c21 (single isomer, unassigned) [I-740]"
7,< 100,"CN(Cc1nc(Nc2ccc(-c3cnc4cc(F)ccn34)c3c2C(=O)NC3)ccc1[C@H]1CCOC1)CC(F)F (single isomer, unassigned) [I-748]"
8,< 100,"CN(Cc1nc(Nc2ccc(-c3cnc4cc(F)ccn34)c3c2C(=O)NC3)ccc1[C@@H]1CCOC1)CC(F)F (single isomer, unassigned) [I-749]"
9,< 100,"CNCc1nc(Nc2cnc(-c3ccnc4c3ccn4C)c3c2C(=O)NC3)ccc1[C@@H]1CCOC1 (single isomer, unassigned) [I-813]"
10,< 100,"CNCc1nc(Nc2cnc(-c3ccnc4c3ccn4C)c3c2C(=O)NC3)ccc1[C@H]1CCOC1 (single isomer, unassigned) [I-814]"
11,100 to 1000,"C[C@@H](c1nc(Nc2ccc(-c3cnc4cc(F)ccn34)c3c2C(=O)NC3)ccc1[C@H]1CCOC1)N(C)C (single isomer, unassigned) [I-818]"
12,< 100,"CN(C)Cc1nc(Nc2ccc(-c3cnc4cc(F)ccn34)c3c2C(=O)NC3)ccc1N1CCOC[C@H](O)C1 (single isomer, unassigned) [I-819]"
13,< 100,"CN(C)Cc1nc(Nc2ccc(-c3cnc4cc(F)ccn34)c3c2C(=O)NC3)ccc1N1CCOC[C@@H](O)C1 (single isomer, unassigned) [I-820]"
14,< 100,"C[C@@H](c1nc(Nc2ccc(-c3cnc4cc(F)ccn34)c3c2C(=O)NC3)ccc1[C@H]1CCOC1)N(C)C (single isomer, unassigned) [I-822]"
15,100 to 1000,"CC1COc2c(-c3ccc(Nc4ccc(N5CCN(C)CC5)cn4)c4c3CNC4=O)cnn2C1 (stereo in doubt) [I-259, (R)-4-(6-methyl-6,7-dihydro-5H-pyrazolo[5,1-b][1,3]oxazin-3-yl)-7-((5-(4-methylpiperazin-1-yl)pyridin-2-yl)amino)isoin-dolin-1-one]"
16,< 100,"COCC1CN(c2ccc(Nc3ccc(-c4cnc5cnccn45)c4c3C(=O)NC4)nc2)CCO1 (stereo in doubt) [I-333, (S)-4-(imidazo[1,2-a]pyrazin-3-yl)-7-((5-(2-(methoxymeth-yl)morpholino)-pyridin-2-yl)amino)isoin-dolin-1-one]"
17,< 100,"COCC1CN(c2ccc(Nc3ccc(-c4cnc5cnccn45)c4c3C(=O)NC4)nc2)CCO1 (stereo in doubt) [I-334, (R)-4-(imidazo[1,2-a]pyrazin-3-yl)-7-((5-(2-(methoxymeth-yl)morpholino)-pyridin-2-yl)amino)isoin-dolin-1-one]"

row,IC50 [nM],SMILES
1,100 to 1000,"O=C1NCc2c(-c3cnc4cc(F)ccn34)ccc(Nc3cccc(O[C@@H]4CCC[C@@H]4O)n3)c21 (stereo in doubt) [I-353, 4-(7-fluoroimidazo [1,2-a]pyridin-3-yl)-7-((6-(((1S,2R)-2-hydroxycyclo-pentyl)oxy)py-ridin-2-yl)amino) isoin-dolin-1-one]"
2,> 1000,"O=C1NCc2c(-c3cnc4cc(F)ccn34)ccc(Nc3cccc(O[C@H]4CCC[C@H]4O)n3)c21 (stereo in doubt) [I-354, 4-(7-fluoroimidazo [1,2-a]pyridin-3-yl)-7-((6-(((lR,2S)-2-hydroxycyclopentyl)oxy)pyri-din-2-yl)amino)isoin-dolin-1-one]"
3,< 100,"C[C@H](O)[C@H]1CCCN(c2ccc(Nc3ccc(-c4cnc5cc(F)ccn45)c4c3C(=O)NC4)nc2)C1 (stereo in doubt) [I-356, 4-(7-fluoroimidazo [1,2-a]pyridin-3-yl)-7-((5-((R)-3-((R)-1-hydroxyethyl)piperidin-1-yl)pyridin-2-yl)amino)isoin-dolin-1-one]"
4,< 100,"C[C@@H](O)[C@@H]1CCCN(c2ccc(Nc3ccc(-c4cnc5cc(F)ccn45)c4c3C(=O)NC4)nc2)C1 (stereo in doubt) [I-357, 4-(7-fluoroimidazo [1,2-a]pyridin-3-yl)-7-((5-((S)-3-((S)-1-hydroxyethyl)piperidin-1-yl)pyridin-2-yl)amino)isoin-dolin-1-one]"
5,< 100,"C[C@H](O)[C@@H]1CCCN(c2ccc(Nc3ccc(-c4cnc5cc(F)ccn45)c4c3C(=O)NC4)nc2)C1 (stereo in doubt) [I-363, 4-(7-fluoroimidazo [1,2-a]pyridin-3-yl)-7-((5-((S)-3-((R)-1-hydroxyethyl)piperidin-1-yl)pyridin-2-yl)amino)isoin-dolin-1-one]"
6,< 100,"C[C@@H](O)[C@H]1CCCN(c2ccc(Nc3ccc(-c4cnc5cc(F)ccn45)c4c3C(=O)NC4)nc2)C1 (stereo in doubt) [I-364, 4-(7-fluoroimidazo [1,2-a]pyridin-3-yl)-7-((5-((R)-3-((S)-1-hydroxyethyl)piperidin-1-yl)pyridin-2-yl)amino)isoin-dolin-1-one]"
7,< 100,"C[C@@H](c1ccc(Nc2ccc(-c3cnc4cc(F)ccn34)c3c2C(=O)NC3)nc1)N1CCC[C@H](O)C1 (stereo in doubt) [I-513, 4-(7-f1uoroimidazo [1,2-a]pyridin-3-yl)-7-((5-((S)-1-((S)-3-hydroxypiperidin-1-yl)ethyl)pyridin-2-yl)amino)isoin-dolin-1-one]"
8,< 100,"C[C@H](c1ccc(Nc2ccc(-c3cnc4cc(F)ccn34)c3c2C(=O)NC3)nc1)N1CCC[C@H](O)C1 (stereo in doubt) [I-514, 4-(7-fluoroimidazo [1,2-a]pyridin-3-yl)-7-((5-((R)-1-((S)-3-hydroxypiperidin-1-yl)ethyl)pyridin-2-yl)amino)isoin-dolin-1-one]"
9,< 100,"CN(C)C(C)(C)C1CN(c2ccc(Nc3ccc(-c4cnc5cc(F)ccn45)c4c3C(=O)NC4)nc2)CCO1 (stereo in doubt) [I-590, (R)-7-((5-(2-(2-(dimethylami-no)propan-2-yl)morpho-lino)pyridin-2-yl)amino)-4-(7-fluoroimidazo [1,2-a]pyridin-3-yl)isoindolin-1-one]"
10,< 100,"CN(C)C(C)(C)C1CN(c2ccc(Nc3ccc(-c4cnc5cc(F)ccn45)c4c3C(=O)NC4)nc2)CCO1 (stereo in doubt) [I-591, (S)-7-((5-(2-(2-(dimethylami-no)propan-2-yl)morpho-lino)pyridin-2-yl)amino)-4-(7-fluoroimidazo [1,2-a]pyridin-3-yl)isoindolin-l-one]"
11,< 100,"O=C1NCc2c(-c3cnc4cc(Cl)ccn34)ccc(Nc3ccc(N4CCOCC(O)C4)cn3)c21 (stereo in doubt) [I-595, (S)-4-(7-chloroimidazo [1,2-a]pyridin-3-yl)-7-((5-(6-hydroxy-1.4-oxazepan-4-yl)pyridin-2-yl)amino)isoin-dolin-1-one]"
12,< 100,"O=C1NCc2c(-c3cnc4cc(Cl)ccn34)ccc(Nc3ccc(N4CCOCC(O)C4)cn3)c21 (stereo in doubt) [I-596, (R)-4-(7-chloroimidazo [1,2-a]pyridin-3-yl)-7-((5-(6-hydroxy-1.4-oxazepan-4-yl)pyridin-2-yl)amino)isoin-dolin-1-one]"
13,< 100,"C[C@@H]1CC[C@](C)(O)CN1c1ccc(Nc2ccc(-c3cnn4c3CCCC4)c3c2C(=O)NC3)nc1 (stereo in doubt) [I-597, 7-((5-((2S,5S)-5-hydroxy-2,5-dimethyl-piperidin-1-yl)pyridin-2-yl)amino)-4-(4,5,6,7-tetrahydropyra-zolo[1,5-a]pyridin-3-yl)isoindolin-1-one]"
14,< 100,"CN(C)C(C)(C)C1CCCN(c2ccc(Nc3ccc(-c4cnc5cc(F)ccn45)c4c3C(=O)NC4)nc2)C1 (stereo in doubt) [I-606, (R)-7-((5-(3-(2-(dimethylami-no)propan-2-yl)piperidin-1-yl)pyridin-2-yl)amino)-4-(7-fluoroimidazo [1,2-a]pyridin-3-yl)isoindolin-1-one]"
15,< 100,"CN(C)C(C)(C)C1CCCN(c2ccc(Nc3ccc(-c4cnc5cc(F)ccn45)c4c3C(=O)NC4)nc2)C1 (stereo in doubt) [I-607, (S)-7-((5-(3-(2-(dimethylami-no)propan-2-yl)piperidin-1-yl)pyridin-2-yl)amino)-4-(7-fluoroimidazo [1,2-a]pyridin-3-yl)isoindolin-1-one]"
16,< 100,"Cc1ccn2c(-c3ccc(Nc4ccc(N5CCOC(CN(C)C)C5)cn4)c4c3CNC4=O)cnc2c1F (stereo in doubt) [I-613, (S)-7-((5-(2-((dimethylamino)-methyl)mor-pholino)pyridin-2-yl)amino)-4-(8-fluoro-7-methylimidazo [1,2-a]pyridin-3-yl)isoindolin-1-one]"

row,SMILES,IC50 [nM]
1,"CO[C@@H]1CC[C@@H](CO)N(c2ccc(Nc3ccc(-c4cnn5c4CCCC5)c4c3C(=O)NC4)nc2)C1 (stereo in doubt) [I-572, 7-((5-((2R,5R)-2-(hydroxymeth-yl)-5-methoxy-piperidin-1-yl)pyridin-2-yl)amino)-4-(4,5,6,7-tetralndropyra-zolo[1,5-a]pyridin-3-yl)isoindolin-1-one]",< 100
